Experimental data reported in ChEMBL document CHEMBL1255397, “Attenuation of cerebrospinal fluid inflammation by the nonbacteriolytic antibiotic daptomycin versus that by ceftriaxone in experimental pneumococcal meningitis” (Antimicrob Agents Chemother, 2010).

How the values were obtained:
[1] = test system: Rattus norvegicus; test: Toxicity in against Streptococcus pneumoniae serotype 3 clinical isolate infected in Wistar rat assessed as increase in CSF IL-18 concentration at 100 mg/kg, sc administered 18 hrs post infection measured after 2 to 6 hrs by microsphere-based multiplex assay; type: organism-based; parameters: dose 100 mg/kg, route subcutaneous; settings: in vivo
[2] = test system: Streptococcus pneumoniae; test: Antimicrobial activity against Streptococcus pneumoniae serotype 3 clinical isolate infected in Wistar rat assessed as cerebrospinal fluid bacterial titer at 50 mg/kg, sc administered 18 hrs post infection measured after 4 hrs; type: functional; settings: route subcutaneous
[3] = test system: Rattus norvegicus; test: Decrease in severity of cortical damage in Streptococcus pneumoniae serotype 3 clinical isolate infected in Wistar rat at 50 mg/kg, sc administered 18 hrs post infection measured after 2 to 6 hrs; type: functional; settings: route subcutaneous
[4] = test system: Rattus norvegicus; test: Toxicity in Streptococcus pneumoniae serotype 3 clinical isolate infected in Wistar rat assessed as decrease in CSF TNF-alpha concentration at 50 mg/kg, sc administered 18 hrs post infection measured after 2 to 6 hrs by microsphere-based multiplex assay; type: organism-based; parameters: dose 50 mg/kg, route subcutaneous; settings: in vivo
[5] = test system: Rattus norvegicus; test: Toxicity in Streptococcus pneumoniae serotype 3 clinical isolate infected in Wistar rat assessed as decrease in CSF CXCL1 concentration at 50 mg/kg, sc administered 18 hrs post infection measured after 2 to 6 hrs by microsphere-based multiplex assay; type: organism-based; parameters: dose 50 mg/kg, route subcutaneous; settings: in vivo
[6] = test system: Rattus norvegicus; test: Toxicity in Streptococcus pneumoniae serotype 3 clinical isolate infected in Wistar rat assessed as decrease in CSF IL-6 concentration at 50 mg/kg, sc administered 18 hrs post infection measured after 2 to 6 hrs by microsphere-based multiplex assay; type: organism-based; parameters: dose 50 mg/kg, route subcutaneous; settings: in vivo
[7] = test system: Rattus norvegicus; test: Toxicity in Streptococcus pneumoniae serotype 3 clinical isolate infected in Wistar rat assessed as increase in CSF IL-18 concentration at 50 mg/kg, sc administered 18 hrs post infection measured after 2 to 6 hrs by microsphere-based multiplex assay; type: organism-based; parameters: dose 50 mg/kg, route subcutaneous; settings: in vivo
[8] = test system: Rattus norvegicus; test: Toxicity in Streptococcus pneumoniae serotype 3 clinical isolate infected in Wistar rat assessed as increase in CSF MIP-1alpha concentration at 100 mg/kg, sc administered 18 hrs post infection measured after 2 to 6 hrs by microsphere-based multiplex assay; type: organism-based; parameters: dose 100 mg/kg, route subcutaneous; settings: in vivo
[9] = test system: Rattus norvegicus; test: Toxicity in Streptococcus pneumoniae serotype 3 clinical isolate infected in Wistar rat assessed as increase in CSF MCP-1 concentration at 100 mg/kg, sc administered 18 hrs post infection measured after 2 to 6 hrs by microsphere-based multiplex assay; type: organism-based; parameters: dose 100 mg/kg, route subcutaneous; settings: in vivo
[10] = test system: Rattus norvegicus; test: Toxicity in Streptococcus pneumoniae serotype 3 clinical isolate infected in Wistar rat assessed as decrease in CSF IL1-beta concentration at 100 mg/kg, sc administered 18 hrs post infection measured after 2 to 6 hrs by microsphere-based multiplex assay; type: organism-based; parameters: dose 100 mg/kg, route subcutaneous; settings: in vivo
[11] = test system: Rattus norvegicus; test: Toxicity in Streptococcus pneumoniae serotype 3 clinical isolate infected in Wistar rat assessed as decrease in CSF IL-10 concentration at 100 mg/kg, sc administered 18 hrs post infection measured after 2 to 6 hrs by microsphere-based multiplex assay; type: organism-based; parameters: dose 100 mg/kg, route subcutaneous; settings: in vivo
[12] = test system: Rattus norvegicus; test: Decrease in severity of cortical damage in Streptococcus pneumoniae serotype 3 clinical isolate infected in Wistar rat at 100 mg/kg, sc administered 18 hrs post infection measured after 2 to 6 hrs; type: functional; settings: route subcutaneous
[13] = test system: Rattus norvegicus; test: Toxicity in Streptococcus pneumoniae serotype 3 clinical isolate infected in Wistar rat assessed as decrease in CSF MIP-1alpha concentration at 50 mg/kg, sc administered 18 hrs post infection measured after 2 to 6 hrs by microsphere-based multiplex assay; type: organism-based; parameters: dose 50 mg/kg, route subcutaneous; settings: in vivo
[14] = test system: Rattus norvegicus; test: Toxicity in Streptococcus pneumoniae serotype 3 clinical isolate infected in Wistar rat assessed as decrease in CSF MCP-1 concentration at 50 mg/kg, sc administered 18 hrs post infection measured after 2 to 6 hrs by microsphere-based multiplex assay; type: organism-based; parameters: dose 50 mg/kg, route subcutaneous; settings: in vivo
[15] = test system: Rattus norvegicus; test: Toxicity in against Streptococcus pneumoniae serotype 3 clinical isolate infected in Wistar rat assessed as decrease in CSF IL-18 concentration at 50 mg/kg, sc administered 18 hrs post infection measured after 2 to 6 hrs by microsphere-based multiplex assay; type: organism-based; parameters: dose 50 mg/kg, route subcutaneous; settings: in vivo
[16] = test system: Rattus norvegicus; test: Toxicity in Streptococcus pneumoniae serotype 3 clinical isolate infected in Wistar rat assessed as decrease in CSF IL1-beta concentration at 50 mg/kg, sc administered 18 hrs post infection measured after 2 to 6 hrs by microsphere-based multiplex assay; type: organism-based; parameters: dose 50 mg/kg, route subcutaneous; settings: in vivo
[17] = test system: Rattus norvegicus; test: Toxicity in Streptococcus pneumoniae serotype 3 clinical isolate infected in Wistar rat assessed as decrease in CSF IL-10 concentration at 50 mg/kg, sc administered 18 hrs post infection measured after 2 to 6 hrs by microsphere-based multiplex assay; type: organism-based; parameters: dose 50 mg/kg, route subcutaneous; settings: in vivo

Compound: CCCCCCCCCC(=O)N[C@@H](Cc1c[nH]c2ccccc12)C(=O)N[C@H](CC(N)=O)C(=O)N[C@@H](CC(=O)O)C(=O)N[C@@H]1C(=O)NCC(=O)N[C@@H](CCCN)C(=O)N[C@@H](CC(=O)O)C(=O)N[C@H](C)C(=O)N[C@@H](CC(=O)O)C(=O)NCC(=O)N[C@H](CO)C(=O)N[C@@H]([C@H](C)CC(=O)O)C(=O)N[C@@H](CC(=O)c2ccccc2N)C(=O)O[C@@H]1C
- Activity [1]: Toxic
- log10CFU/ml [2]: < 1000 CFU/ml
- inhibition in vivo at 50 mg/kg [3]: 0.13%
- Activity [4]: Non-toxic
- Activity [5]: Non-toxic
- Activity [6]: Non-toxic

Compound: CO/N=C(\C(=O)N[C@@H]1C(=O)N2C(C(=O)O)=C(CSc3nc(=O)c(=O)[nH]n3C)CS[C@H]12)c1csc(N)n1 [CEFTRIAXONE]
- Activity [7]: Toxic
- Activity [8]: Toxic
- Activity [9]: Toxic
- Activity [10]: Toxic
- Activity [11]: Toxic
- inhibition in vivo at 100 mg/kg [12]: 4.7%
- Activity [13]: Non-toxic
- Activity [14]: Non-toxic
- Activity [15]: Non-toxic
- Activity [16]: Non-toxic
- Activity [17]: Non-toxic
